The values below come from patent publication US20110318380A1, “MHC Multimers in Cancer Vaccines and Immune Monitoring” (priority 2008, published 2011).

Like-named read-outs stand apart in the source and are kept apart here.

The subject of one assay is T2 cells. The following applies: cited from earlier work.
The target in assay [1] is Bcl-X(L)173-182 specific CD8 T cells in PBL from a breast cancer patient. In words: flow cytometry of PBL ex vivo, APC dextramer with 7-AAD, CD3 and CD8; compared with an HIV specific dextramer as negative control. (Flow cytometry measures light scatter and fluorescence of single cells or particles in a stream.)
The target in assay [2] is purified folded MHC-complex (Example 37).
For assay [3], the system named is PBL from a breast cancer patient. The note with it: with vs without peptide; in doublets; cited from earlier work.

“GLQHWVPEL (Irrelevant peptide) [BA4697-105, irrelevant peptide loaded on T2 target cells, reference compound]”: the “lysis of peptide-pulsed T2 cells” value with T2 cells (Clone 8, 9, 10, 11, and 12) was “without killing”.
“dextramer complex HLA-A2/Bcl-X(L)173-182-APC (from UniProt P61769 21-119) (peptide-MHC)”: in assay [1], the level of dextramer positive CD-8 cells in the patient sample is 0.03%.
Turning to “W6/32 mouse-anti-HLA-ABC antibody (Dako M0736)”, in assay [2], the OD450 ratio to the negative control β2m is more than 6 fold.
Take YLNDHLEPWI (listed as Homo Sapiens): the “lysis of peptide-pulsed T2 cells” value in the assay on T2 cells (Clone 7, 13, 15, 17, and 18) is reported as “did not show specific lysis”; with T2 cells (Clone 8, 9, 10, 11, and 12), “effectively lysed”. The “cell lysis of T2 cells pulsed with different concentrations of peptide” value in the assay with T2 cells (clone 9, E:T ratio 1:1) was “significant even at low concentrations”. The “cell lysis of peptide-pulsed T2 cells” value in the assay with T2 cells (clone 9, specific vs irrelevant peptide, three E:T ratios) is given as “necessary to get killing of the target cell”. Besides, in assay [3], the “number of spots (IFN-gamma producing T-cells)” value is “clearly shows the presence of BclX(L) specific T-cells”.
